pEC50, pIC50: −log10 of the molar value. Numbered stars: 1 amine (or outer) side, 2 acyl side, 3 side chain; on linkers, the order of the positions; unused ones are H or OH. Peptide text beside a SMILES is read from it. * marks the point of attachment. C20 diacid = O=C(O)CCCCCCCCCCCCCCCCCCC(=O)*; C18 diacid = O=C(O)CCCCCCCCCCCCCCCCC(=O)*; γGlu = O=C(O)[C@H](CCC(=O)[*:2])N[*:1]
Columns and labels:
[1] = Solubility in 100 mM bistrispropane buffer at pH 8.0 incubated for 18 hrs by UPLC analysis; format: physicochemical
[2] = Solubility in 100 mM glycylglycine buffer at pH 5.0 incubated for 18 hrs by UPLC analysis; format: physicochemical
[3] = molecular target: T1, Amylin receptor AMY3; CALCR/RAMP3 (Homo sapiens, UniProt O60896+P30988); test: Displacement of [125I]-labeled rat amylin from human amylin receptor expressed in BHK tkts13 whole cells co-expressing RAMP3 incubated for 60 mins by scintillation proximity assay; format: cell-based
T1 sequence (P30988 whole entry): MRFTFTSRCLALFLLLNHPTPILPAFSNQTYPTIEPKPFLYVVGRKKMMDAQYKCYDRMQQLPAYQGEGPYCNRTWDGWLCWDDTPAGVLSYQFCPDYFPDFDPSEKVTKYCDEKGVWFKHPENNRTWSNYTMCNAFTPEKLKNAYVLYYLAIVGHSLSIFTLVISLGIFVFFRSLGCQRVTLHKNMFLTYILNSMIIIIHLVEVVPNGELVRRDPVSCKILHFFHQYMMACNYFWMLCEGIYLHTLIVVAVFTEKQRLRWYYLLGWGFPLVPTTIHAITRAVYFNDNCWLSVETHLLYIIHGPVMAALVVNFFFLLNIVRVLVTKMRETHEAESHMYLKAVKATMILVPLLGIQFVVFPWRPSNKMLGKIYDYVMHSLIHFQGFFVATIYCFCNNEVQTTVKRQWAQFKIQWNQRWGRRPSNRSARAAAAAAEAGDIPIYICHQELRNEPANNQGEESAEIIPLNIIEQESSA
T1 sequence (O60896 whole entry): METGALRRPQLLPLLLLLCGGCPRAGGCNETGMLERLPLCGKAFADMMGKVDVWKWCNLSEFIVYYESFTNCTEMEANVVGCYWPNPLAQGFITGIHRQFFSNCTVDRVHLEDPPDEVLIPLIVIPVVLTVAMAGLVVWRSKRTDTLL

[4] = Solubility in 100 mM bistrispropane buffer at pH 6.0 incubated for 18 hrs by UPLC analysis; format: physicochemical
[5] = Solubility in 100 mM bistrispropane buffer at pH 7.0 incubated for 18 hrs by UPLC analysis; format: physicochemical
[6] = Solubility in 100 mM bistrispropane buffer at pH 6.5 incubated for 18 hrs by UPLC analysis; format: physicochemical
Rattus norvegicus [7] = test: Reduction in food intake in Sprague-Dawley rat at 3 nmol/kg measured 24 to 48 hrs post dose relative to control; format: functional; design: scale not given: the % may be the effect or the level left
[8] = Solubility in 100 mM bistrispropane buffer at pH 7.5 incubated for 18 hrs by UPLC analysis; format: physicochemical
[9] = Solubility in 100 mM glycylglycine buffer at pH 4.0 incubated for 18 hrs by UPLC analysis; format: physicochemical
Calcitonin receptor [10] = molecular target: T2, Calcitonin receptor (Homo sapiens, UniProt P30988); test: Agonist activity at human calcitonin receptor expressed in BHK570 cells assessed as increase in intracellular cAMP concentration incubated for 3 hrs in absence of albumin by CRE luciferase reporter gene assay; format: functional, cell-based
T2 sequence (P30988 whole entry): T1 sequence (P30988 whole entry)

[11] = molecular target: T1, Amylin receptor AMY3; CALCR/RAMP3; test: Agonist activity at human amylin receptor expressed in BHK570 cells co-expressing RAMP3 assessed as increase in intracellular cAMP concentration incubated for 3 hrs in presence of 10% FBS by CRE luciferase reporter gene assay; format: functional, cell-based
Calcitonin receptor [12] = molecular target: T2, Calcitonin receptor; test: Agonist activity at human calcitonin receptor expressed in BHK570 cells assessed as increase in intracellular cAMP concentration incubated for 3 hrs in presence of 10% FBS by CRE luciferase reporter gene assay; format: functional, cell-based
[13] = molecular target: T1, Amylin receptor AMY3; CALCR/RAMP3; test: Agonist activity at human amylin receptor expressed in BHK570 cells co-expressing RAMP3 assessed as increase in intracellular cAMP concentration incubated for 3 hrs in absence of albumin by CRE luciferase reporter gene assay; format: functional, cell-based
[14] = Solubility in 100 mM glycylglycine buffer at pH 3.0 incubated for 18 hrs by UPLC analysis; format: physicochemical
Rattus norvegicus [15] = test: Reduction in food intake in Sprague-Dawley rat at 3 nmol/kg measured 0 to 24 hrs post dose relative to control; format: functional; design: scale not given: the % may be the effect or the level left

SMILES | solubility at 18 h [1] | solubility at 18 h [2] | pIC50 [3] | solubility at 18 h [4] | solubility at 18 h [5] | solubility at 18 h [6] | Activity (Rattus norvegicus [7]) | solubility at 18 h [8] | solubility at 18 h [9] | pEC50 (Calcitonin receptor [10]) | pEC50 [11] | pEC50 (Calcitonin receptor [12]) | pEC50 [13] | solubility at 18 h [14] | Activity (Rattus norvegicus [15])
CC(C)C[C@H](NC(=O)[C@H](C)NC(=O)[C@H](C)NC(=O)[C@@H](NC(=O)[C@H](CO)NC(=O)[C@H](CC(C)C)NC(=O)[C@H](CCC(=O)O)NC(=O)[C@H](CO)NC(=O)[C@H](C)NC(=O)[C@H](CCC(=O)O)NC(=O)CCCCCCCCCCCCCCCCC(=O)O)[C@@H](C)O)C(=O)NCC(=O)N[C@@H](CCCNC(=N)N)C(=O)N[C@@H](CC(C)C)C(=O)N[C@@H](CO)C(=O)N[C@@H](C)C(=O)N[C@@H](CCC(=O)O)C(=O)N[C@@H](CC(C)C)C(=O)N[C@@H](Cc1cnc[nH]1)C(=O)N[C@@H](CCC(=O)O)C(=O)N[C@@H](CC(C)C)C(=O)N[C@@H](C)C(=O)N[C@H](C(=O)N[C@@H](CC(C)C)C(=O)N1CCC[C@H]1C(=O)N[C@@H](CCCNC(=N)N)C(=O)N[C@H](C(=O)N[C@@H](CCC(=O)O)C(=O)N[C@H](C(=O)NCC(=O)N[C@@H](CO)C(=O)NCC(=O)N[C@@H](CO)C(=O)N1CCC[C@H]1C(N)=O)[C@@H](C)O)[C@@H](C)O)[C@@H](C)O ({C18 diacid}-EASELSTAALGRLSAELHELATLPRTETGSGSP-NH2) | ≥ 200 µM | ≥ 200 µM | 9.73 | ≥ 200 µM | ≥ 200 µM | ≥ 200 µM | 46% | ≥ 200 µM | ≥ 200 µM | 11.22 | 10.41 | 10.72 | 11.05 | ≥ 200 µM | 71%
CC(C)C[C@H](NC(=O)[C@H](CCC(=O)O)NC(=O)[C@H](Cc1cnc[nH]1)NC(=O)[C@H](CC(C)C)NC(=O)[C@H](CCC(=O)O)NC(=O)[C@H](C)NC(=O)[C@H](CO)NC(=O)[C@H](CC(C)C)NC(=O)[C@H](CCCNC(=N)N)NC(=O)CNC(=O)[C@H](CC(C)C)NC(=O)[C@@H](NC(=O)[C@H](C)NC(=O)[C@@H](NC(=O)[C@H](CO)NC(=O)[C@H](CC(C)C)NC(=O)[C@H](CCC(=O)O)NC(=O)[C@H](CO)NC(=O)[C@@H]1CCCN1C(=O)[C@H](CCC(=O)O)NC(=O)CCCCCCCCCCCCCCCCC(=O)O)[C@@H](C)O)C(C)C)C(=O)N[C@@H](C)C(=O)N[C@H](C(=O)N[C@@H](CC(C)C)C(=O)N1CCC[C@H]1C(=O)N[C@@H](CCCNC(=N)N)C(=O)N[C@H](C(=O)N[C@@H](CCC(=O)O)C(=O)N[C@H](C(=O)NCC(=O)N1CCC[C@H]1C(=O)N[C@@H](CCC(=O)O)C(=O)N[C@@H](CO)C(=O)N1CCC[C@H]1C(N)=O)[C@@H](C)O)[C@@H](C)O)[C@@H](C)O ({C18 diacid}-EPSELSTAVLGRLSAELHELATLPRTETGPESP-NH2) | ≥ 200 µM | ≥ 200 µM | 9.43 | ≥ 200 µM | ≥ 200 µM | ≥ 200 µM | 77% | ≥ 200 µM | ≥ 200 µM | 11.15 |  |  | 11.10 | ≥ 200 µM | 84%
CC(C)C[C@H](NC(=O)CNC(=O)[C@H](CO)NC(=O)[C@H](C)NC(=O)CC[C@H](NC(=O)CCCCCCCCCCCCCCCCCCC(=O)O)C(=O)O)C(=O)N[C@@H](CO)C(=O)N[C@H](C(=O)N[C@@H](C)C(=O)N[C@@H](C)C(=O)N[C@@H](CC(C)C)C(=O)NCC(=O)N[C@@H](CCCNC(=N)N)C(=O)N[C@@H](CC(C)C)C(=O)N[C@@H](CO)C(=O)N[C@@H](CCC(=O)O)C(=O)N[C@@H](CCC(=O)O)C(=O)N[C@@H](CC(C)C)C(=O)N[C@@H](Cc1cnc[nH]1)C(=O)N[C@@H](CCC(=O)O)C(=O)N[C@@H](CC(C)C)C(=O)N[C@@H](CCC(N)=O)C(=O)N[C@H](C(=O)N[C@@H](Cc1ccc(O)cc1)C(=O)N1CCC[C@H]1C(=O)N[C@@H](CCCNC(=N)N)C(=O)N[C@H](C(=O)N[C@@H](CCC(=O)O)C(=O)N[C@H](C(=O)NCC(=O)N[C@@H](CO)C(=O)NCC(=O)N[C@H](C(=O)N[C@@H](Cc1ccc(O)cc1)C(N)=O)[C@@H](C)O)[C@@H](C)O)[C@@H](C)O)[C@@H](C)O)[C@@H](C)O ({C20 diacid-γGlu}-ASGLSTAALGRLSEELHELQTYPRTETGSGTY-NH2) | ≥ 200 µM |  |  | ≥ 200 µM | ≥ 200 µM | ≥ 200 µM | 6% | ≥ 200 µM |  | 10.68 | 9.80 | 10.24 | 10.44 | ≥ 200 µM | 21%
CC(C)C[C@H](NC(=O)CNC(=O)[C@H](CO)NC(=O)[C@H](CC(C)C)NC(=O)[C@H](CCC(=O)O)NC(=O)CC[C@H](NC(=O)CCCCCCCCCCCCCCCCCCC(=O)O)C(=O)O)C(=O)N[C@@H](CO)C(=O)N[C@H](C(=O)N[C@@H](CC(C)C)C(=O)N[C@H](C(=O)N[C@@H](CC(C)C)C(=O)NCC(=O)N[C@@H](CCCNC(=N)N)C(=O)N[C@@H](CC(C)C)C(=O)N[C@@H](CO)C(=O)N[C@@H](CCC(N)=O)C(=O)N[C@@H](CCC(=O)O)C(=O)N[C@@H](CC(C)C)C(=O)N[C@@H](Cc1cnc[nH]1)C(=O)N[C@@H](CCC(=O)O)C(=O)N[C@@H](CC(C)C)C(=O)N[C@@H](CCC(N)=O)C(=O)N[C@H](C(=O)N[C@@H](Cc1ccc(O)cc1)C(=O)N1CCC[C@H]1C(=O)N[C@@H](CCCNC(=N)N)C(=O)N[C@H](C(=O)NCC(=O)N[C@H](C(=O)NCC(=O)N[C@@H](CO)C(=O)NCC(=O)N[C@H](C(=O)N[C@@H](Cc1ccc(O)cc1)C(N)=O)[C@@H](C)O)[C@@H](C)O)[C@@H](C)O)[C@@H](C)O)C(C)C)[C@@H](C)O ({C20 diacid-γGlu}-ELSGLSTLVLGRLSQELHELQTYPRTGTGSGTY-NH2) |  |  | 8.59 |  |  |  | 0% |  | ≥ 200 µM |  | 9.25 |  | 10.60 | ≥ 200 µM | 32%
CC(C)C[C@H](NC(=O)[C@H](C)NC(=O)[C@H](C)NC(=O)[C@@H](NC(=O)[C@H](CO)NC(=O)[C@H](CC(C)C)NC(=O)[C@H](CCC(=O)O)NC(=O)[C@H](CO)NC(=O)[C@H](C)NC(=O)[C@H](CCC(=O)O)NC(=O)CCCCCCCCCCCCCCCCCCC(=O)O)[C@@H](C)O)C(=O)NCC(=O)N[C@@H](CCCNC(=N)N)C(=O)N[C@@H](CC(C)C)C(=O)N[C@@H](CO)C(=O)N[C@@H](C)C(=O)N[C@@H](CCC(=O)O)C(=O)N[C@@H](CC(C)C)C(=O)N[C@@H](Cc1cnc[nH]1)C(=O)N[C@@H](CCC(=O)O)C(=O)N[C@@H](CC(C)C)C(=O)N[C@@H](C)C(=O)N[C@H](C(=O)N[C@@H](CC(C)C)C(=O)N1CCC[C@H]1C(=O)N[C@@H](CCCNC(=N)N)C(=O)N[C@H](C(=O)N[C@@H](CCC(=O)O)C(=O)N[C@H](C(=O)NCC(=O)N[C@@H](CO)C(=O)NCC(=O)N[C@@H](CO)C(=O)N1CCC[C@H]1C(N)=O)[C@@H](C)O)[C@@H](C)O)[C@@H](C)O ({C20 diacid}-EASELSTAALGRLSAELHELATLPRTETGSGSP-NH2) | ≥ 200 µM | ≥ 200 µM | 9.62 | ≥ 200 µM | ≥ 200 µM | ≥ 200 µM | 63.5% | ≥ 200 µM | ≥ 200 µM | 11.05 | 10.21 | 10.59 | 10.96 | ≥ 200 µM | 55.5%
